One assay deals with soluble epoxide hydrolase (sEH). Put plainly: Fluorescent assay for soluble epoxide hydrolase (CMNPC substrate), percent inhibition at the recited concentration. It is filed as biochemical. The conditions noted are these: Inhibition Conc. 50 nM. From the text:
Fluorescent Assay for Mouse and Human Soluble Epoxide Hydrolase Recombinant mouse sEH (MsEH) and human sEH (HsEH) were produced in a baculovirus expression system as previously reported. Grant et al., J. Biol. Chem., 268:17628-17633 (1993); Beetham et al., Arch. Biochem. Biophys., 305:197-201 (1993). The expressed proteins were purified from cell lysate by affinity chromatography. Wixtrom et al., Anal. Biochem., 169:71-80 (1988). Protein concentration was quantified using the Pierce BCA assay using bovine serum albumin as the calibrating standard. The preparations were at least 97% pure as judged by SDS-PAGE and scanning densitometry. They contained no detectable esterase or glutathione transferase activity which can interfere with the assay. The assay was also evaluated with similar results in crude cell lysates or homogenate of tissues. The IC50s for each inhibitor were determined according to the following procedure: […] Jones P. D. et al.; Analytical Biochemistry 2005; 343: pp. 66-75) Bis/Tris HCl 25 mM pH 7.0 containing 0.1 mg/mL of BSA (buffer […] at 0.25 mM in DMSO. Mother solution of enzyme in buffer A (Mouse sEH at 6 μg/mL and Human sEH at 5 μg/mL). Inhibitor dissolved in DMSO at the appropriate concentration. In a black 96 well plate, fill all the wells with 150 μL of buffer A. Add 2 μL of DMSO in well A2 and A3, and then add 2 μL of inhibitor solution in A1 and A4 through A12. Add 150 μL of buffer A in row A, then mix several time and transfer 150 μL to row B. Repeat this operation up to row H. The 150 μL removed from row H is discarded. Add 20 μL of buffer A in column 1 and 2, then add 20 μL of enzyme solution to column 3 to 12. Incubate the plate for 5 minutes in the plate reader at 30° C. During incubation prepare the working solution of substrate by mixing 3.68 mL of buffer A (4×0.920 mL) with 266 μL (2×133 μL) of substrate solution). At t=0, add 30 μL of working substrate solution with multi-channel pipette labeled “Briggs 303” and start the reading ([S]final: 5 μM). Read with ex: 330 nm (20 nm) and em: 465 nm (20 nm) every 30 second for 10 minutes. The velocities are used to analyze and calculate the IC50s. Tables 1-7 above provide the percent inhibition of the enzyme when tested at the concentration recited therein.
As to `CC(C)(C)C(=O)N1CCC(NC(=O)NC23CC4CC(CC(C4)C2)C3)CC1` [Compound 7-13, 1-(1-adamantyl)-3-(1-pivaloylpiperidin-4-yl)urea], the “% inh.” value was found to be 91%.

As for `COC(=O)N1CCC(NC(=O)Nc2ccc(C(F)(F)F)cc2)CC1` [Compound 7-14, methyl 4-(3-(4-(trifluoromethyl)phenyl)ureido)piperidine-1-carboxylate], the “% inh.” value was determined as 92%.

For `CCOC(=O)N1CCC(NC(=O)Nc2ccc(C(F)(F)F)cc2)CC1` [Compound 7-15, ethyl 4-(3-(4-(trifluoromethyl)phenyl)ureido)piperidine-1-carboxylate], the “% inh.” value is given as 93%.

As for `O=C(Nc1ccc(C(F)(F)F)cc1)NC1CCN(C(=O)Nc2ccc(C(F)(F)F)cc2)CC1` [Compound 7-16, N-(4-(trifluoromethyl)phenyl)-4-(3-(4-(trifluoro-methyl)phenyl)ureido)-piperidine-1-carboxamide], the “% inh.” value is reported as 98%.

Regarding `CC(C)(C)C(=O)N1CCC(NC(=O)Nc2ccc(OC(F)(F)F)cc2)CC1` [Compound 7-19, 1-(1-pivaloylpiperidin-4-yl)-3-(4-(trifluoro-methoxy)phenyl)urea], the “% inh.” value was found to be 97%.

`CC(C)OC(=O)N1CCC(NC(=O)Nc2ccc(C(F)(F)F)cc2)CC1` [Compound 7-20, isopropyl 4-(3-(4-(trifluoromethyl)phenyl)ureido)piperidine-1-carboxylate]: the “% inh.” value stood at 95%.

As to `CN(C)C(=O)N1CCC(NC(=O)Nc2ccc(C(F)(F)F)cc2)CC1` [Compound 7-21, N,N-dimethyl-4-(3-(4-(trifluoromethyl)phenyl)-ureido)piperidine-1-carboxamide], the “% inh.” value was found to be 86%.

In the case of `CC(C)OC(=O)N1CCC(NC(=O)Nc2ccc(OC(F)(F)F)cc2)CC1` [Compound 7-22, isopropyl 4-(3-(4-(trifluoromethoxy)phenyl)ureido)piperidine-1-carboxylate], the “% inh.” value is given as 99%.

`CC(C)OC(=O)N1CCC(NC(=O)NC23CC4CC(CC(C4)C2)C3)CC1` [Compound 7-23, isopropyl 4-(3-(1-adamantyl)ureido)piperidine-1-carboxylate]: the “% inh.” value turned out to be 93%.

For `O=C(NC1CCN(S(=O)(=O)c2ccc(-c3ccccc3)cc2)CC1)NC12CC3CC(CC(C3)C1)C2` [Compound 7-24, 1-(1-(biphenyl-4-ylsulfonyl)piperidin-4-yl)-3-adamantylurea], the “% inh.” value worked out at 96%.

For the compound `O=C(NC1CCN(S(=O)(=O)c2ccc3ccccc3c2)CC1)NC12CC3CC(CC(C3)C1)C2` [Compound 7-25, 1-adamantyl-3-(1-(naphthalen-2-ylsulfonyl)piperidin-4-yl)urea], the “% inh.” value is 99%.

With `O=C(NC1CCN(S(=O)(=O)c2ccccc2)CC1)NC12CC3CC(CC(C3)C1)C2` [Compound 7-26, 1-adamantyl-3-(1-(phenylsulfonyl)piperidin-4-yl)urea], the “% inh.” value is reported as 97%.

On to `O=C(NC1CCN(S(=O)(=O)c2ccc(Cl)cc2)CC1)NC12CC3CC(CC(C3)C1)C2` [Compound 7-27], for which the “% inh.” value is recorded as 95%.

For `O=C(NC1CCN(S(=O)(=O)c2cccs2)CC1)NC12CC3CC(CC(C3)C1)C2` [Compound 7-28, 1-adamantyl-3-(1-(thiophen-2-ylsulfonyl)piperidin-4-yl)urea], the “% inh.” value amounted to 94%.

For the compound `O=C(NC1CCN(S(=O)(=O)Cc2ccccc2)CC1)NC12CC3CC(CC(C3)C1)C2` [Compound 7-29, 1-(1-(benzylsulfonyl)piperidin-4-yl)-3-adamantylurea], the “% inh.” value was determined as 93%.

Regarding `CC(C)(C)c1ccc(S(=O)(=O)N2CCC(NC(=O)NC34CC5CC(CC(C5)C3)C4)CC2)cc1` [Compound 7-30, 1-(1-(4-tert-butylphenylsulfonyl)piperidin-4-yl)-3-adamantylurea], the “% inh.” value was determined as 97%.

As for `O=C(NC1CCN(S(=O)(=O)c2ccccc2C(F)(F)F)CC1)NC12CC3CC(CC(C3)C1)C2` [Compound 7-32, 1-adamantyl-3-(1-(2-(trifluoromethyl)phenylsulfonyl)piperidin-4-yl)urea], the “% inh.” value amounted to 97%.

Turning to `Cc1ccccc1S(=O)(=O)N1CCC(NC(=O)NC23CC4CC(CC(C4)C2)C3)CC1` [Compound 7-33, 1-adamantyl-3-(1-(o-tolylsulfonyl)piperidin-4-yl)urea], the “% inh.” value came to 99%.

Turning to `Cc1c(Cl)cccc1S(=O)(=O)N1CCC(NC(=O)NC23CC4CC(CC(C4)C2)C3)CC1` [Compound 7-34, 1-(1-(3-chloro-2-methylphenylsulfonyl)piperidin-4-yl)-3-adamantylurea], the “% inh.” value turned out to be 91%.

Regarding `Cc1cccc(Cl)c1S(=O)(=O)N1CCC(NC(=O)NC23CC4CC(CC(C4)C2)C3)CC1` [Compound 7-35, 1-(1-(2-chloro-6-methylphenylsulfonyl)piperidin-4-yl)-3-adamantylurea], the “% inh.” value is listed as 98%.

Take `O=C(NC1CCN(S(=O)(=O)c2ccc(C(F)(F)F)cc2)CC1)NC12CC3CC(CC(C3)C1)C2` [Compound 7-36, 1-adamantyl-3-(1-(4-(trifluoromethyl)phenylsulfonyl)piperidin-4-yl)urea]: the “% inh.” value worked out at 99%.

As to `O=C(NC1CCN(S(=O)(=O)c2ccc(Cl)c(Cl)c2)CC1)NC12CC3CC(CC(C3)C1)C2` [Compound 7-37], the “% inh.” value stood at 100%.

On to `O=C(NC1CCN(S(=O)(=O)c2cccc(C(F)(F)F)c2)CC1)NC12CC3CC(CC(C3)C1)C2` [Compound 7-38, 1-adamantyl-3-(1-(3-(trifluoromethyl)phenylsulfonyl)piperidin-4-yl)urea], for which the “% inh.” value is 100%.

As for `Cn1cnc(C(=O)N2CCC(NC(=O)NC34CC5CC(CC(C5)C3)C4)CC2)c1` [Compound 7-39, 1-adamantyl-3-(1-(1-methyl-1H-imidazole-4-carbonyl)piperidin-4-yl)urea], the “% inh.” value is 89%.

Turning to `O=C(NC1CCCCC1)NC1CCN(C(=O)c2ccccn2)CC1` [Compound 7-40, 1-cyclohexyl-3-(1-picolinoylpiperidin-4-yl)urea], the “% inh.” value is on record as 82%.

Turning to `CS(=O)(=O)c1ccc(S(=O)(=O)N2CCC(NC(=O)NC34CC5CC(CC(C5)C3)C4)CC2)cc1` [Compound 7-41, 1-adamantyl-3-(1-(4-(methylsulfonyl)phenylsulfonyl)piperidin-4-yl)urea], the “% inh.” value came out at 92%.

Turning to `O=C(NC1CCCCC1)NC1CCN(S(=O)(=O)c2ccc(Cl)cc2)CC1` [Compound 7-42, 1-(1-(4-chlorophenylsulfonyl)piperidin-4-yl)-3-cyclohexylurea], the “% inh.” value came out at 95%.

On to `O=C(NC1CCCCC1)NC1CCN(S(=O)(=O)c2cccc(C(F)(F)F)c2)CC1` [Compound 7-44, 1-cyclohexyl-3-(1-(3-(trifluoromethyl)phenylsulfonyl)piperidin-4-yl)urea], for which the “% inh.” value came to 81%.

For the compound `O=C(NC1CCN(S(=O)(=O)c2ccc(C(=O)O)cc2)CC1)NC12CC3CC(CC(C3)C1)C2` [Compound 7-45, 4-(4-(3-adamantylureido)piperidin-1-ylsulfonyl)benzoic acid], the “% inh.” value was found to be 92%.

Consider `O=C(NC1CCN(C(=O)c2ccc(Cl)cc2)CC1)NC12CC3CC(CC(C3)C1)C2` [Compound 7-46, 1-(1-(4-chlorobenzoyl)piperidin-4-yl)-3-adamantylurea], for which the “% inh.” value worked out at 96%.

For `CC(C)(C)OC(=O)N1CCC(NC(=O)Nc2ccc(C(F)(F)F)cc2)CC1` [Compound 7-47, tert-butyl 4-(3-(4-(trifluoromethyl)phenyl)ureido)piperidine-1-carboxylate], the “% inh.” value was 100%.

The assay is the same for the next values; noted with them: Inhibition Conc. 200 nM.
On to `CC(C)(C)OC(=O)N1CCC(NC(=O)NC2CCCCCC2)CC1` [Compound 7-48, tert-butyl 4-(3-cycloheptylureido)piperidine-1-carboxylate], for which the “% inh.” value is 100%.

Staying with this assay, now noted: Inhibition Conc. 500 nM.
Regarding `CC(=O)N1CCC(NC(=O)Nc2ccc(Oc3ccccc3)cc2)CC1` [Compound 7-12, 1-(1-acetylpiperidin-4-yl)-3-(4-phenoxyphenyl)urea], the “% inh.” value is on record as 95%.

`CC(C)(C)OC(=O)N1CCC(NC(=O)NC2CCCC2)CC1` [Compound 7-17, tert-butyl 4-(3-cyclopentylureido)-piperidine-1-carboxylate]: the “% inh.” value was found to be 85%.

Turning to `CC(=O)N1CCC(NC(=O)NC2CCCCC2)CC1` [Compound 7-43, 1-(1-acetylpiperidin-4-yl)-3-cyclohexylurea], the “% inh.” value amounted to 86%.

The same assay, now with this note: Inhibition Conc. 5000 nM.
For the compound `CC(=O)N1CCC(NC(=O)NC2CCCC2)CC1` [Compound 7-18, 1-(1-acetylpiperidin-4-yl)-3-cyclopentylurea], the “% inh.” value worked out at 74%.

The values are drawn from patent US20080227780A1, “SOLUBLE EPOXIDE HYDROLASE INHIBITORS” (Arete Therapeutics, Inc., priority 2007, published 2008).
